Experimental data: patent US20180325869A1, “TARGETING OF THE FORMYL-PEPTIDE RECEPTOR 2/LIPOXIN A4 RECEPTOR (FPR2/ALX) FOR TREATMENT OF HEART DISEASE” (BRISTOL-MYERS SQUIBB COMPANY, priority 2015, published 2018)

Legend:
human HL60 cell line [1] = assay: HL-60 cell migration assay antagonist mode (SAA-induced chemotaxis); type: cell-based; conditions: read-out: affinity for antagonism of chemotaxis induced by SAA
Description: (§1) HL-60 cell culture and differentiation. The HL-60 cell line (ATCC, CCL-240, lot 60398411) was maintained in IMDM (Life Tech, cat 12440-053) medium supplemented with 20% fetal bovine serum, 50 U/ml penicillin, and 50 μg/ml streptomycin at 37° with 5% CO2. Cells were differentiated into the granulocyte lineage with DMSO; 2.5×10^5 cells/ml were incubated with 1.25% DMSO for 5 days.
Neutrophil and HL-60 cell migration assay antagonist mode. After 5 day differentiation, the cells were resuspended in phenol free RPMI (Invitrogen, cat 11835) with 0.2% fatty acid free BSA at a concentration of 3×10^7 cells/ml. The dHL-60 cells (10^5 in 100 μl) were pre-incubated for 15 minutes with varying concentrations of the […] at 37° with 5% CO2. Then 0.8uM of the recombinant serum amyloid A1 peptide (rSAA1, PeproTech, Cat#300-53) was added to the bottom chamber of each HTS transwell-96well plate (Coming#3387). Migration was induced by placing […] and the dHL60 cells mixture in the top chamber of the transwell plate. Cells were allowed to migrate for 120 min across the 5micron filters at 37° with 5% CO2. Following migration, neutrophils or dHL-60 cells remaining in the transwell lower chamber (migrated fraction) were quantitated using the cell-titer-glo luminescence cell viability assay (Promega, G7571).

mFPR2/ALX = target: T1, mFPR2/ALX (Mus musculus, UniProt O88536); assay: cAMP assay in CHO-A12 cell line over-expressing mouse mFPR2; type: cell-based; conditions: CHO-A12 cells over-expressing mFPR2; read-out: potency as activator of mFPR2/ALX
T1 construct: expressed in transfected cells; host or cells: CHO-A12
T1 sequence (O88536 1-351): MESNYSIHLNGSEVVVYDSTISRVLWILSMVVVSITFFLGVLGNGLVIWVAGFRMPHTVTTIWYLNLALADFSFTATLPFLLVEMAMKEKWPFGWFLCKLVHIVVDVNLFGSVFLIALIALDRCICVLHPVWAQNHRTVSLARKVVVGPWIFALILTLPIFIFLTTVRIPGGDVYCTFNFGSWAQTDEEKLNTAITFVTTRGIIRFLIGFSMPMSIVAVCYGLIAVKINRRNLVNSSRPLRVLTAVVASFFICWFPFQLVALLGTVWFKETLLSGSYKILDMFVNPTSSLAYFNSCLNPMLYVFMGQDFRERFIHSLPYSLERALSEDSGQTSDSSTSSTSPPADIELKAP

mFPR1 receptor = target: T2, mFPR1 receptor (Mus musculus, UniProt P33766); assay: Functional assay with mFPR1 receptor; type: cell-based; conditions: read-out: function affinity with mFPR1 receptor
T2 sequence (P33766 1-364): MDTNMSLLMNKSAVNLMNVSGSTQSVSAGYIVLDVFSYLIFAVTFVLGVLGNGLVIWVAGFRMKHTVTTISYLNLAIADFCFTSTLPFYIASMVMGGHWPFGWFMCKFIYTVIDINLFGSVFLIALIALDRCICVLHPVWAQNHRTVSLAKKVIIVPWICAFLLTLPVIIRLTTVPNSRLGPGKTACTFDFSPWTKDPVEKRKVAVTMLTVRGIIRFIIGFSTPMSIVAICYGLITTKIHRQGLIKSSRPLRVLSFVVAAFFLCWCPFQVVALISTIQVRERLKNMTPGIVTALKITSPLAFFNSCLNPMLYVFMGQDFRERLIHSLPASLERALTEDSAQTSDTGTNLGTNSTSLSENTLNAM

[2] = test system: mouse bio-gel elicited peritoneal macrophages; assay: Enhancement of phagocytosis in bio-gel elicited peritoneal macrophages; type: cell-based
Description: Enhancement of phagocytosis. Macrophages were elicited to the peritoneum of five C57BL6 mice by peritoneal injection of 1 ml of 1% Biogel in PBS (−/−) 4 days prior to harvest. Peritoneal exudates are harvested, combined and then filtered to remove Biogel beads. First, through a 70 um cell strainer followed by successively filtering through two 40 um cell strainers. The exudate is diluted with 1× PBS (−/−) to 50 ml and centrifuged at 300× g for 10 minutes at 4° C. The cell pellet is gently resuspended in 20-30 ml 1× PBS(+/+) and cells are counted using the Nexelcom Cellometer counter. Cell concentration is adjusted to 1,250,000 cells/ml in 1× PBS (+/+). 100 ul (125 k) cells are placed into each well of a 96-well Costar 3904 plate. The plates are centrifuged at 150× g for 30 seconds to promote adherence. […] Fluorescence signal from non-ingested Zymosan particles is quenched with 150 ul ice-cold 1:15 diluted Trypan Blue solution for 2 minutes and then aspirated to remove. Lastly, the plate is read on a SpectraMAX Gemini EM fluorescence plate reader in 150 ul of 1:50 diluted Trypan Blue. Plate Reader Settings=Bottom Read: Excitation 493 nm: Emission 525 nm: Cutoff 515 nm: Automix Off: Calibrate On: PMT=Auto: Column Priority: Reads/Well=20.

human HL60 cell line [3] = assay: HL-60 cell migration assay agonist mode; type: cell-based; conditions: read-out: potency for stimulation of chemotaxis by itself
Description: as §1
Neutrophil and HL-60 cell migration assay agonist mode. After 5 day differentiation, cells were resuspended in phenol free RPMI (Invitrogen, cat 11835) with 0.2% fatty acid free BSA at a concentration of 3×10^7 cells/ml. The dHL-60 cells (10^5 in 100 μl) were added to the upper chamber of each HTS transwell-96well plate (Corning#3387). Migration was induced by placing chemoattractant in the bottom chamber and the dHL60 cells in the top chamber of the transwell plate. Cells were allowed to migrate for 120 min across the 5 micron filters at 37° with 5% CO2. Following migration, neutrophils or dHL-60 cells remaining in the transwell lower chamber (migrated fraction) were quantitated using the cell-titer-glo luminescence cell viability assay (Promega, G7571).

mice [4] = assay: Permanent coronary artery occlusion myocardial infarction model; type: in vivo
Description: Animal models. Permanent coronary artery occlusion was carried out in mice using a ligature placed around the left anterior descending artery to induce myocardial infarction. […] Mice subjected to thoracotomy but not infarcted were included as surgical “sham” controls. Mice were evaluated 28 days following myocardial infarction to assess structure/function relationships. Hearts were removed from mice to evaluate the passive mechanics of the myocardium. To do this, ex vivo pressure-volume relationships of the left ventricle were measured via inflation and deflation cycles of a balloon placed within the left ventricle of the excised heart. Two-dimensional strains of the myocardial scar were also measured to determine the compliance of infarcted tissue. Hearts were also processed histologically to measure left ventricular dimensions, infarct areas and infarct collagen composition.

mFPR3 = target: T3, mFPR3 (Mus musculus, UniProt O08790); assay: cAMP assay in CHO-A12 cell line over-expressing mouse mFPR3; type: cell-based; conditions: CHO-A12 cells over-expressing mFPR3; read-out: activity against mFPR3
T3 construct: expressed in transfected cells; host or cells: CHO-A12
T3 sequence (O08790 1-351): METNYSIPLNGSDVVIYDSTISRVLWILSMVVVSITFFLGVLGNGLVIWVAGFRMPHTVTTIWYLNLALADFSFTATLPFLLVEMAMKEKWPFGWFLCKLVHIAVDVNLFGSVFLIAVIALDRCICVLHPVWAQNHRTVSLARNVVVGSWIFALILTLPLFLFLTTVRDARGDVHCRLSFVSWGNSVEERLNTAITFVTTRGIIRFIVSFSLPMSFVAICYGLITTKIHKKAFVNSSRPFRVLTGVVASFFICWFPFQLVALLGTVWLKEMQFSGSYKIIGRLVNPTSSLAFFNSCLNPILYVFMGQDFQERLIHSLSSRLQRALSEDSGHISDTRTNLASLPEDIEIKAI

mice [5] = assay: Angiotensin II challenge myocardial fibrosis model; type: in vivo, mouse; conditions: for decrease of left ventricular hydroxyproline content vs vehicle: p<0.05
Description: To assess myocardial fibrosis, mice were challenged with angiotensin II to stimulate cardiac hypertrophy and left ventricular collagen deposition. Mice were administered angiotensin II using subcutaneously implanted osmotic mini-pumps (˜2 mg/kg/day) A separate group of mice were implanted with subcutaneous pumps containing saline (surgical “sham” group); these mice served as control for pump implantation surgery. […] Treatments lasted for 2-3 weeks, depending on the exact study design. At the end of treatment phase, hearts were removed from animals and evaluated for collagen levels/fibrosis using a standard colorimetric assay for myocardial hydroxyproline or by cross-sectional histology of the hearts.
Myocardial fibrosis was evaluated in the mouse with continuous angiotensin II challenge administered by subcutaneous osmotic mini-pump.

human HL60 cell line [6] = assay: Flipr calcium flux assay using dHL60 cell line; type: cell-based; conditions: HL-60; neutrophil like human HL60 cell line; read-out: potency for increase of cytosolic Ca2+ levels
Description: Flipr assay using dHL60 non-adherent cell line. HL60 cells were diluted to 1.5×10^5 cells/ml and were grown in culture medium containing 1.3% DMSO at 37C for 5 days. On day 6 cells were counted to make sure that cells viability was approx. 95%. The 1.2×10^7 cells were spin down and washed cells once with assay buffer. The supernatant was removed and cells were re-suspended in 12 ml buffer with fluo-4 AM loading dye and label cells at 37C for 30 min. Loading buffer: HBSS (invitrogen, cat 14075), 20 mM HEPES, 0.1% FAF-BSA, 15 ul of 0.025% pluronic F127 (Invitrogen, P3000 MP), 2.5 mM probenecid, 1.9 uM Fluo-4 AM (Invitrogen, F14201). After incubation cells were washed once with reaction buffer to remove the dye and were re-suspended at 1×10^6 cells/ml. Following wash, cells were plated in 100 ul/well in Poly-D-Lysine pre-coated 96 well assay plates. Assay plates were centrifuged at 1000 rpm for 10 min and then placed in the FLIPR to perform calcium flux assay.

[7] = mice, oral 1 and 10 mg/kg QD, stated for both models

Structure (SMILES): CC(C)c1c(NC(=O)Nc2ccc(Cl)cc2)c(=O)n(-c2ccccc2)n1C [Compound 1, 1-(4-chlorophenyl)-3-(5-isopropyl-1-methyl-3-oxo-2-phenyl-2,3-dihydro-1H-pyrazol-4-yl)urea]
- IC50 (human HL60 cell line [1]): 189 nM
- EC50 (mFPR2/ALX): 20 nM
- EC50 (mFPR1 receptor): ~50 nM
- enhancement of phagocytosis of fluorescently labeled zymosan vs untreated control cells ([2]; compound in picomolar range, depending on experimental conditions): 250 to 60%
- enhancement of phagocytosis in knockout macrophages ([2]; macrophages from single mFPR2 and mFPR3 or double mFPR2/FPR3 knockout mice): no such enhancement
- EC50 (human HL60 cell line [3]): 78 nM
- reduction of infarct area (as % of left ventricle area) vs vehicle (mice [4]; 1 mg/kg, histology, p<0.05): 44%
- reduction of left ventricular chamber area vs vehicle (histology) (mice [4]; 1 mg/kg, p<0.05): 28%
- reduction of infarct area (as % of left ventricle area) vs vehicle (mice [4]; 10 mg/kg, histology, p<0.05): 49%
- reduction of left ventricular chamber area vs vehicle (histology) (mice [4]; 10 mg/kg, p<0.05): 30%
- ex vivo left ventricle pressure-volume curves (mice [4]; 28 days post MI, 1 and 10 mg/kg QD oral): left shifted in a dose-dependent manner
- pressure-volume slopes (myocardial stiffness) (mice [4]; 28 days post MI, ex vivo): greater than vehicle and similar to normal sham control mice
- two-dimensional scar strains (mice [4]; 28 days post MI, ex vivo): reduced circumferential and longitudinal strains relative to vehicle treatment
- overall mortality (mice [4]; high dose): decrease in overall mortality
- increased anterior left ventricular wall thickness at site of infarction vs vehicle (mice [4]; histology, p<0.05): 45-65%
- tolerability throughout the in-life phase (mice [4]; [7]): well tolerated
- untoward effects on the physiology of the mice (mice [4]; [7]): no untoward effects
- EC50 (mFPR3): > 10000 nM
- decrease of left ventricular hydroxyproline content vs vehicle (mice [5]; 1 mg/kg, pre-treatment 24 h before angiotensin II, 2 weeks): 83%
- decrease of left ventricular hydroxyproline content vs vehicle (mice [5]; 10 mg/kg, pre-treatment 24 h before angiotensin II, 2 weeks): 75%
- interstitial collagen by histology of the left ventricle (mice [5]; pre-treatment 24 h before angiotensin II, 2 weeks): Comparable reductions
- hydroxyproline content and interstitial collagen levels by histology (mice [5]; treatment given at the time of angiotensin II challenge): comparable reductions
- reduction of interstitial fibrosis in the left ventricle vs vehicle (mice [5]; treatment started after 3 days of angiotensin II, 2.5 weeks, histology, p<0.001): ~74%
- EC50 (human HL60 cell line [6]): 50 nM
